Experimental data from patent publication US10517889B2, “Modulators of SMAD7 expression” (Ionis Pharmaceuticals, Inc., priority 2017, dated 2019).
Strand notation (5' to 3'): a small letter for the sugar, then the base; units joined by * are phosphorothioate-linked, units joined directly phosphodiester-linked; [ ] holds rarer units or linkages, { } end groups; capitals alone tell only the bases. k = constrained ethyl (cEt); [5mC] = 5-methylcytosine; d = 2'-deoxy (DNA)

System: human SMAD7 mRNA
Assay: Antisense inhibition of human SMAD7 mRNA expression in Hep3B cells by 3-10-3 cEt gapmers, 10,000 nM, electroporation (Example 2)
Format: cell-based
Details: Hep3B cells, electroporation with 10,000 nM antisense oligonucleotide, approximately 24 hours, SMAD7 mRNA by RT-PCR (RTS5062), relative to untreated control cells
Outline: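 qRT-PCR (RTS5062) of SMAD7 mRNA, normalised to RIBOGREEN total RNA, gave percent inhibition relative to untreated controls. Hep3B cells at 20,000 per well received 10,000 nM oligonucleotide by electroporation, with ~24 h treatment.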

Substance | % Inhibition
799348 (kA*kT*kA*dA*dA*dA*dG*dG*dA*dA*dA*dG*dG*kA*kG*kT; antisense) [compound 799348] | 21%
799349 (kA*kG*k[5mC]*dG*d[5mC]*dA*d[5mC]*dT*d[5mC]*dG*dG*dG*dA*kG*kA*kT; antisense) [compound 799349] | 0%
799350 (kA*kT*kT*d[5mC]*d[5mC]*dT*dA*dG*d[5mC]*dG*d[5mC]*dA*d[5mC]*kT*k[5mC]*kG; antisense) [compound 799350] | 31%
799351 (kT*kT*kT*dA*dG*d[5mC]*dT*dG*dT*d[5mC]*dA*dG*dA*kT*kA*kA; antisense) [compound 799351] | 31%
799352 (kG*k[5mC]*kG*dG*dT*dG*dA*dT*dT*dG*d[5mC]*d[5mC]*dT*kT*kG*kA; antisense) [compound 799352] | 24%
799353 (kT*k[5mC]*kT*dT*dT*dT*dA*dG*d[5mC]*d[5mC]*d[5mC]*dA*dA*k[5mC]*kT*kG; antisense) [compound 799353] | 45%
799354 (kA*kT*k[5mC]*dT*dA*d[5mC]*dT*d[5mC]*dA*d[5mC]*d[5mC]*dA*dG*kT*kT*kG; antisense) [compound 799354] | 0%
799355 (kA*kG*kG*dA*dA*dA*d[5mC]*d[5mC]*dT*dA*dG*dA*dA*k[5mC]*k[5mC]*kA; antisense) [compound 799355] | 23%
799356 (kG*kA*kA*dA*dA*dA*dT*dT*d[5mC]*dA*d[5mC]*d[5mC]*dA*kA*kA*k[5mC]; antisense) [compound 799356] | 23%
799357 (k[5mC]*kA*k[5mC]*dA*dA*d[5mC]*dA*dG*dA*dA*dA*dA*dA*kT*kT*k[5mC]; antisense) [compound 799357] | 41%
799367 (antisense kA*kG*kT*d[5mC]*dT*d[5mC]*d[5mC]*dG*dA*dG*dT*dT*dA*kT*k[5mC]*k[5mC]) [compound 799367] | 41%
799368 (antisense k[5mC]*kT*kA*dA*dG*dT*d[5mC]*dT*d[5mC]*d[5mC]*dG*dA*dG*kT*kT*kA) [compound 799368] | 68%
799370 (antisense kG*kG*k[5mC]*dA*d[5mC]*dT*d[5mC]*dA*d[5mC]*dT*dA*dA*dG*kT*k[5mC]*kT) [compound 799370] | 13%
799371 (antisense k[5mC]*k[5mC]*k[5mC]*dT*dT*dT*d[5mC]*d[5mC]*dA*dT*dT*dA*dT*kT*k[5mC]*k[5mC]) [compound 799371] | 28%
799372 (antisense k[5mC]*k[5mC]*k[5mC]*dA*dT*d[5mC]*dT*dA*dT*d[5mC]*dG*dA*dA*kT*k[5mC]*kA) [compound 799372] | 67%
799373 (antisense kA*kA*k[5mC]*d[5mC]*dG*dT*d[5mC]*dT*dT*d[5mC]*d[5mC]*d[5mC]*dA*kT*k[5mC]*kT) [compound 799373] | 56%
799374 (antisense kT*kT*kG*d[5mC]*dA*d[5mC]*d[5mC]*dT*dT*dT*dT*dT*dA*kA*kA*k[5mC]) [compound 799374] | 30%
799375 (antisense kG*k[5mC]*k[5mC]*dT*dA*dT*dA*d[5mC]*dT*dT*d[5mC]*dT*dG*kA*kA*kA) [compound 799375] | 10%
799376 (antisense kG*k[5mC]*kA*dG*dG*dA*dG*dG*dA*dA*d[5mC]*d[5mC]*dT*kA*k[5mC]*k[5mC]) [compound 799376] | 45%
799387 (antisense k[5mC]*k[5mC]*kA*dG*dG*dA*dG*d[5mC]*dT*dA*dA*dA*dT*kG*kG*kT) [compound 799387] | 22%
799388 (antisense kT*kT*kG*d[5mC]*dA*dG*dA*dA*dT*dT*d[5mC]*d[5mC]*dA*kG*kG*kA) [compound 799388] | 41%
799389 (antisense kA*kA*kA*dA*d[5mC]*dG*d[5mC]*dA*dG*dG*dA*dG*dG*k[5mC]*kG*kG) [compound 799389] | 27%
799390 (antisense k[5mC]*kA*kA*dA*dA*d[5mC]*dT*dT*dT*dT*dA*dA*dT*kT*kA*kG) [compound 799390] | 0%
799391 (antisense k[5mC]*kG*k[5mC]*d[5mC]*d[5mC]*d[5mC]*dA*dG*d[5mC]*dA*dA*dA*dA*k[5mC]*kT*kT) [compound 799391] | 0%
799392 (antisense kT*kA*kT*dT*dA*dG*dA*d[5mC]*d[5mC]*dG*dG*d[5mC]*dA*k[5mC]*k[5mC]*kA) [compound 799392] | 46%
799393 (antisense kT*kG*k[5mC]*dT*dT*dT*dG*d[5mC]*dG*dG*dG*d[5mC]*d[5mC]*kA*k[5mC]*kT) [compound 799393] | 56%
799394 (antisense kA*k[5mC]*kA*dG*dA*dG*dA*dG*d[5mC]*dT*dG*dG*dG*kT*kA*kT) [compound 799394] | 33%
799395 (antisense kT*kT*kA*d[5mC]*dA*dA*dA*dT*dA*d[5mC]*dA*dG*dA*kG*kA*kG) [compound 799395] | 62%

Same assay, conditions: Hep3B cells, electroporation with 10,000 nM antisense oligonucleotide, approximately 24 hours, primer probe set RTS5062, relative to untreated control cells

Substance | % inhibition of SMAD7 mRNA expression
799344 (k[5mC]*k[5mC]*k[5mC]*dA*d[5mC]*dT*dA*dA*dT*d[5mC]*dT*dA*d[5mC]*kA*kG*kA; antisense) [compound 799344] | 34%
799345 (k[5mC]*kG*kA*dG*dA*dA*dG*d[5mC]*d[5mC]*d[5mC]*dA*dG*dG*k[5mC]*k[5mC]*k[5mC]; antisense) [compound 799345] | 20%
799346 (kT*k[5mC]*kT*d[5mC]*dA*dG*d[5mC]*d[5mC]*dG*dA*dG*dA*dA*kG*k[5mC]*k[5mC]; antisense) [compound 799346] | 26%
799347 (kA*kA*kG*dG*dA*dG*dT*dT*dT*d[5mC]*dA*dG*dG*kG*kT*k[5mC]; antisense) [compound 799347] | 59%
799358 (kA*kG*k[5mC]*dA*d[5mC]*dA*dA*dA*dT*dA*d[5mC]*dA*dT*kG*kA*kA; antisense) [compound 799358] | 52%
799359 (kT*kG*kT*dT*dA*dA*dA*dG*d[5mC]*dT*dG*dA*dG*k[5mC]*k[5mC]*k[5mC]; antisense) [compound 799359] | 22%
799360 (k[5mC]*k[5mC]*kA*dA*dG*dA*d[5mC]*dA*d[5mC]*dT*dT*d[5mC]*dT*k[5mC]*kT*k[5mC]; antisense) [compound 799360] | 42%
799361 (kG*kT*k[5mC]*d[5mC]*dT*dA*dT*dT*dT*dG*dG*dT*dT*k[5mC]*k[5mC]*k[5mC]; antisense) [compound 799361] | 77%
799362 (k[5mC]*kA*kT*d[5mC]*dA*dA*d[5mC]*d[5mC]*dA*dG*dT*d[5mC]*d[5mC]*kT*kA*kT; antisense) [compound 799362] | 39%
799363 (kG*kA*kG*dT*dT*dA*dT*d[5mC]*d[5mC]*d[5mC]*d[5mC]*dA*dT*k[5mC]*kA*kA; antisense) [compound 799363] | 49%
799377 (antisense kT*kT*kG*d[5mC]*dA*dG*dG*dT*dG*dA*d[5mC]*dT*dG*kG*kA*kG) [compound 799377] | 15%
799378 (antisense kG*kA*kA*dT*dA*d[5mC]*dT*dG*dA*dG*dA*dA*dA*kA*k[5mC]*k[5mC]) [compound 799378] | 46%
799379 (antisense kT*kT*kT*dG*dA*dT*dA*dG*dT*d[5mC]*d[5mC]*d[5mC]*dT*kA*kT*kG) [compound 799379] | 0%
799380 (antisense k[5mC]*kT*k[5mC]*d[5mC]*dT*dA*d[5mC]*dT*dG*dT*dA*dA*dG*kA*kG*kG) [compound 799380] | 1%
799381 (antisense kA*kA*k[5mC]*dA*dG*dA*dT*d[5mC]*dT*dA*dT*d[5mC]*dT*k[5mC]*k[5mC]*kT) [compound 799381] | 54%
799383 (antisense k[5mC]*kA*k[5mC]*dA*dA*dA*dA*dA*d[5mC]*d[5mC]*dA*dA*dG*kG*kT*kT) [compound 799383] | 40%
799384 (antisense kG*kG*k[5mC]*dA*d[5mC]*dA*dA*dA*dA*dA*d[5mC]*d[5mC]*dA*kA*kG*kG) [compound 799384] | 40%
799385 (antisense kT*kG*k[5mC]*d[5mC]*d[5mC]*dA*dA*d[5mC]*d[5mC]*d[5mC]*dT*dT*d[5mC]*kA*k[5mC]*kT) [compound 799385] | 31%
799386 (antisense kA*kG*kG*dA*dG*d[5mC]*dT*dA*dA*dA*dT*dG*dG*kT*kG*k[5mC]) [compound 799386] | 12%
799397 (antisense kA*kA*kA*dA*d[5mC]*dA*dG*dA*dG*d[5mC]*dT*dT*dG*kG*kT*kA) [compound 799397] | 27%
799398 (antisense k[5mC]*kT*kT*dG*dG*dA*dA*dA*dA*dT*dG*dA*dA*k[5mC]*kT*kT) [compound 799398] | 48%
799399 (antisense kT*k[5mC]*k[5mC]*dA*dA*dA*dT*dT*dT*dG*dA*dA*dG*kA*kA*kT) [compound 799399] | 0%
799400 (antisense kG*kG*kA*dA*dA*dA*d[5mC]*d[5mC]*dT*d[5mC]*d[5mC]*dA*dA*kA*kT*kT) [compound 799400] | 0%
799401 (antisense kT*k[5mC]*kT*dT*dT*dT*dA*dA*dG*dG*dA*dA*dA*kA*k[5mC]*k[5mC]) [compound 799401] | 53%
